pIC50: −log10 of the molar value.
molecular target: T1, AR-VP16 (Homo sapiens, UniProt P10275); assay: AR-VP16 DNA Binding Assay, antagonist mode (HepG2 cells, 0.1 nM R1881); type: cell-based
T1 sequence (P10275 560-920 limits assumed): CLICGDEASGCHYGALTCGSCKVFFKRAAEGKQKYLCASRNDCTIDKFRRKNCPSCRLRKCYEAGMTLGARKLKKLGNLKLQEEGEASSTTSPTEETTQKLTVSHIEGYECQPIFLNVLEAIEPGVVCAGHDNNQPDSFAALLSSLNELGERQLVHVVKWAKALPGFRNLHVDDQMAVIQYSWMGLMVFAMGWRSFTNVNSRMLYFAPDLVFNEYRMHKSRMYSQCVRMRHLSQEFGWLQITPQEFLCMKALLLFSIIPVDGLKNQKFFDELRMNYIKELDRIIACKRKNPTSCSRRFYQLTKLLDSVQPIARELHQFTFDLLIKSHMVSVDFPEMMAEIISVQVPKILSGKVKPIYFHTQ
Description: Cells were transiently transfected using Lipofectin (Life Technologies) according to the manufacturer's protocol. […] Transfected cells were incubated overnight then treated with ligand. […] For antagonist assays, the compounds were serially diluted and 50 μL of compound with RPMI supplemented with charcoal stripped serum plus methyltrienolone (R1881) were added to the cells. The final R1881 concentration used in the antagonist assays was 0.1 nM. Following 48 hour incubation the medium was removed and the cells were lysed in 40 μL of lysis buffer (25 mM Tris Phosphate, 2 mM CDTA, 10% Glycerol, 0.5% Triton X-100, 2 mM DTT).

| Compound | pIC50 |
| --- | --- |
| N#Cc1ncc(N2C(=O)C3(CCC3)N(c3ccc(C(=O)NCc4cccs4)c(F)c3)C2=S)cc1C(F)(F)F [Compound 260, 4-(7-(6-Cyano-5-(trifluoromethyl)pyridin-3-yl)-8-oxo-6-thioxo-5,7-diazaspiro[3.4]octan-5-yl)-2-fluoro-N-(thiophen-2-ylmethyl)benzamide] | > 6.00 |
| Cc1ccc(N2C(=S)N(c3ccc(C#N)n4nccc34)C(=O)C23CCC3)cc1 [Compound 82, 4-(8-Oxo-6-thioxo-5-(p-tolyl)-5,7-diazaspiro[3.4]octan-7-yl)pyrazolo[1,5-a]pyridine-7-carbonitrile] | > 6.00 |
| N#Cc1ncc(N2C(=O)C3(CCC3)N(c3ccc(-c4cccnc4)cc3)C2=S)cc1C(F)(F)F [Compound 17, 5-(8-Oxo-5-(4-(pyridin-3-yl)phenyl)-6-thioxo-5,7-diazaspiro[3.4]octan-7-yl)-3-(trifluoromethyl)picolinonitrile] | > 6.00 |
| N#Cc1ncc(N2C(=O)C3(CCC3)N(c3ccc(OCCCOCc4ccccc4)c(F)c3)C2=S)cc1C(F)(F)F [Compound 135, 5-(5-(4-(3-(Benzyloxy)propoxy)-3-fluorophenyl)-8-oxo-6-thioxo-5,7-diazaspiro[3.4]octan-7-yl)-3-(trifluoromethyl)picolinonitrile] | > 6.00 |
| N#Cc1ncc(N2C(=O)C3(CCC3)N(c3ccc(OCCCN4CCCC4)c(F)c3)C2=S)cc1C(F)(F)F [Compound 185, 5-(5-(3-Fluoro-4-(3-(pyrrolidin-1-yl)propoxy)phenyl)-8-oxo-6-thioxo-5,7-diazaspiro[3.4]octan-7-yl)-3-(trifluoromethyl)picolinonitrile] | > 6.00 |
| N#Cc1ncc(N2C(=O)C3(CCC3)N(C3CCCCC3)C2=S)cc1C(F)(F)F [Compound 53, 5-(5-Cyclohexyl-8-oxo-6-thioxo-5,7-diazaspiro[3.4]octan-7-yl)-3-(trifluoromethyl)picolinonitrile] | > 6.00 |
| N#Cc1ncc(N2C(=O)C3(CCC3)N(c3ccc(C(=O)NC4CC4)c(F)c3)C2=S)cc1C(F)(F)F [Compound 284, 4-(7-(6-Cyano-5-(trifluoromethyl)pyridin-3-yl)-8-oxo-6-thioxo-5,7-diazaspiro[3.4]octan-5-yl)-N-cyclopropyl-2-fluorobenzamide] | > 6.00 |
| CNC(=O)c1ccc(N2C(=S)N(c3cnc(C#N)c(C)c3)C(=O)C23CCC3)cc1Cl [Compound 108, 2-Chloro-4-(7-(6-cyano-5-methylpyridin-3-yl)-8-oxo-6-thioxo-5,7-diazaspiro[3.4]octan-5-yl)-N-methylbenzamide] | > 6.00 |
| N#Cc1ncc(N2C(=O)C3(CCC3)N(c3ccc(OCCc4cnccn4)c(F)c3)C2=S)cc1C(F)(F)F [Compound 176, 5-(5-(3-Fluoro-4-(2-(pyrazin-2-yl)ethoxy)phenyl)-8-oxo-6-thioxo-5,7-diazaspiro[3.4]octan-7-yl)-3-(trifluoromethyl)picolinonitrile] | > 6.00 |
| N#Cc1ncc(N2C(=O)C3(CCC3)N(c3ccc(C(=O)NCc4ccccc4Cl)c(F)c3)C2=S)cc1C(F)(F)F [Compound 287, N-(2-Chlorobenzyl)-4-(7-(6-cyano-5-(trifluoromethyl)pyridin-3-yl)-8-oxo-6-thioxo-5,7-diazaspiro[3.4]octan-5-yl)-2-fluorobenzamide] | > 6.00 |
| CN1CCN(C(=O)COc2ccc(N3C(=S)N(c4cnc(C#N)c(C(F)(F)F)c4)C(=O)C34CCC4)cc2F)CC1 [Compound 309, 5-(5-(3-Fluoro-4-(2-(4-methylpiperazin-1-yl)-2-oxoethoxy)phenyl)-8-oxo-6-thioxo-5,7-diazaspiro[3.4]octan-7-yl)-3-(trifluoromethyl)picolinonitrile] | > 6.00 |
| CN1CCN(CCOc2ccc(N3C(=S)N(c4ccc(C#N)c5ncccc45)C(=O)C34CCC4)cc2F)CC1 [Compound 173, 5-(5-(3-Fluoro-4-(2-(4-methylpiperazin-1-yl)ethoxy)phenyl)-8-oxo-6-thioxo-5,7-diazaspiro[3.4]octan-7-yl)quinoline-8-carbonitrile] | > 6.00 |
